Assay results published in ChEMBL document CHEMBL4229426, “Synthesis, antitumor activity evaluation and mechanistic study of novel hederacolchiside A1 derivatives bearing an aryl triazole moiety” (Bioorg Med Chem, 2018).
pIC50: −log10 of the molar value.

Tests used:
Type in all cases: functional, cell-based
PC-3 = test: Antiproliferative activity against human PC3 cells after 48 hrs by MTT assay; details: PC-3, 48 h
HepG2 = test: Antiproliferative activity against human HepG2 cells after 48 hrs by MTT assay; details: HepG2, 48 h
HL-60 = test: Antiproliferative activity against human HL60 cells after 48 hrs by MTT assay; details: HL-60, 48 h
U-937 = test: Antiproliferative activity against human U937 cells after 48 hrs by MTT assay; details: U-937, 48 h
HT-29 = test: Antiproliferative activity against human HT-29 cells after 48 hrs by MTT assay; details: HT-29, 48 h
A549 = test: Antiproliferative activity against human A549 cells after 48 hrs by MTT assay; details: A549, 48 h

SMILES	pIC50 (PC-3)	pIC50 (HepG2)	pIC50 (HL-60)	pIC50 (U-937)	pIC50 (HT-29)	pIC50 (A549)
Cc1ccccc1-n1cc(CNC(=O)[C@]23CCC(C)(C)C[C@H]2C2=CC[C@@H]4[C@@]5(C)CC[C@H](O[C@@H]6OC[C@H](O[C@@H]7O[C@H](CO)[C@@H](O)[C@H](O)[C@H]7O)[C@H](O)[C@H]6O[C@@H]6O[C@@H](C)[C@H](O)[C@@H](O)[C@H]6O)C(C)(C)[C@@H]5CC[C@@]4(C)[C@]2(C)CC3)nn1	5.30	5.82	5.42	5.33	5.27	5.38
C[C@@H]1O[C@@H](O[C@H]2[C@H](O[C@H]3CC[C@]4(C)[C@H]5CC=C6[C@@H]7CC(C)(C)CC[C@]7(C(=O)NCc7cn(-c8cccc(Br)c8)nn7)CC[C@@]6(C)[C@]5(C)CC[C@H]4C3(C)C)OC[C@H](O[C@@H]3O[C@H](CO)[C@@H](O)[C@H](O)[C@H]3O)[C@@H]2O)[C@H](O)[C@H](O)[C@H]1O	6.31	5.14	6.00	6.14	5.75	6.05
Cc1cccc(C)c1-n1cc(CNC(=O)[C@]23CCC(C)(C)C[C@H]2C2=CC[C@@H]4[C@@]5(C)CC[C@H](O[C@@H]6OC[C@H](O[C@@H]7O[C@H](CO)[C@@H](O)[C@H](O)[C@H]7O)[C@H](O)[C@H]6O[C@@H]6O[C@@H](C)[C@H](O)[C@@H](O)[C@H]6O)C(C)(C)[C@@H]5CC[C@@]4(C)[C@]2(C)CC3)nn1	5.05	5.48	5.35	5.07	5.12	5.22
C[C@@H]1O[C@@H](O[C@H]2[C@H](O[C@H]3CC[C@]4(C)[C@H]5CC=C6[C@@H]7CC(C)(C)CC[C@]7(C(=O)NCc7cn(-c8cccc(F)c8)nn7)CC[C@@]6(C)[C@]5(C)CC[C@H]4C3(C)C)OC[C@H](O[C@@H]3O[C@H](CO)[C@@H](O)[C@H](O)[C@H]3O)[C@@H]2O)[C@H](O)[C@H](O)[C@H]1O	6.14	6.05	5.88	5.51	5.65	5.37
O=c1[nH]cc(F)c(=O)[nH]1 [FLUOROURACIL]	5.07	4.23	4.26	4.25	4.65	4.16
CC(=O)c1ccc(-n2cc(CNC(=O)[C@]34CCC(C)(C)C[C@H]3C3=CC[C@@H]5[C@@]6(C)CC[C@H](O[C@@H]7OC[C@H](O[C@@H]8O[C@H](CO)[C@@H](O)[C@H](O)[C@H]8O)[C@H](O)[C@H]7O[C@@H]7O[C@@H](C)[C@H](O)[C@@H](O)[C@H]7O)C(C)(C)[C@@H]6CC[C@@]5(C)[C@]3(C)CC4)nn2)cc1	4.33	4.48	5.33	6.11	5.19	6.55
C[C@@H]1O[C@@H](O[C@H]2[C@H](O[C@H]3CC[C@]4(C)[C@H]5CC=C6[C@@H]7CC(C)(C)CC[C@]7(C(=O)NCc7cn(-c8c(Cl)cccc8Cl)nn7)CC[C@@]6(C)[C@]5(C)CC[C@H]4C3(C)C)OC[C@H](O[C@@H]3O[C@H](CO)[C@@H](O)[C@H](O)[C@H]3O)[C@@H]2O)[C@H](O)[C@H](O)[C@H]1O	4.38	4.64	4.55	4.74	4.42	5.18
C[C@@H]1O[C@@H](O[C@H]2[C@H](O[C@H]3CC[C@]4(C)[C@H]5CC=C6[C@@H]7CC(C)(C)CC[C@]7(C(=O)O)CC[C@@]6(C)[C@]5(C)CC[C@H]4C3(C)C)OC[C@H](O[C@@H]3O[C@H](CO)[C@@H](O)[C@H](O)[C@H]3O)[C@@H]2O)[C@H](O)[C@H](O)[C@H]1O [HEDERACOLCHISIDE A1]	6.07	5.38	5.50	5.63	5.32	5.27
C[C@@H]1O[C@@H](O[C@H]2[C@H](O[C@H]3CC[C@]4(C)[C@H]5CC=C6[C@@H]7CC(C)(C)CC[C@]7(C(=O)NCc7cn(-c8ccc([N+](=O)[O-])cc8)nn7)CC[C@@]6(C)[C@]5(C)CC[C@H]4C3(C)C)OC[C@H](O[C@@H]3O[C@H](CO)[C@@H](O)[C@H](O)[C@H]3O)[C@@H]2O)[C@H](O)[C@H](O)[C@H]1O	5.25	4.58	4.68	5.16	5.52	5.40
C[C@@H]1O[C@@H](O[C@H]2[C@H](O[C@H]3CC[C@]4(C)[C@H]5CC=C6[C@@H]7CC(C)(C)CC[C@]7(C(=O)NCc7cn(-c8ccccc8[N+](=O)[O-])nn7)CC[C@@]6(C)[C@]5(C)CC[C@H]4C3(C)C)OC[C@H](O[C@@H]3O[C@H](CO)[C@@H](O)[C@H](O)[C@H]3O)[C@@H]2O)[C@H](O)[C@H](O)[C@H]1O	4.30	4.46	4.44	4.40	5.11	4.26
C[C@@H]1O[C@@H](O[C@H]2[C@H](O[C@H]3CC[C@]4(C)[C@H]5CC=C6[C@@H]7CC(C)(C)CC[C@]7(C(=O)NCc7cn(-c8ccc(Cl)cc8)nn7)CC[C@@]6(C)[C@]5(C)CC[C@H]4C3(C)C)OC[C@H](O[C@@H]3O[C@H](CO)[C@@H](O)[C@H](O)[C@H]3O)[C@@H]2O)[C@H](O)[C@H](O)[C@H]1O	5.25	5.67	5.34	6.03	4.39	5.73
C[C@@H]1O[C@@H](O[C@H]2[C@H](O[C@H]3CC[C@]4(C)[C@H]5CC=C6[C@@H]7CC(C)(C)CC[C@]7(C(=O)NCc7cn(-c8ccccc8Br)nn7)CC[C@@]6(C)[C@]5(C)CC[C@H]4C3(C)C)OC[C@H](O[C@@H]3O[C@H](CO)[C@@H](O)[C@H](O)[C@H]3O)[C@@H]2O)[C@H](O)[C@H](O)[C@H]1O	5.28	5.53	5.51	6.11	5.29	5.68
C[C@@H]1O[C@@H](O[C@H]2[C@H](O[C@H]3CC[C@]4(C)[C@H]5CC=C6[C@@H]7CC(C)(C)CC[C@]7(C(=O)NCc7cn(-c8ccccc8F)nn7)CC[C@@]6(C)[C@]5(C)CC[C@H]4C3(C)C)OC[C@H](O[C@@H]3O[C@H](CO)[C@@H](O)[C@H](O)[C@H]3O)[C@@H]2O)[C@H](O)[C@H](O)[C@H]1O	4.41	5.27	5.26	5.35	4.51	5.15
C[C@@H]1O[C@@H](O[C@H]2[C@H](O[C@H]3CC[C@]4(C)[C@H]5CC=C6[C@@H]7CC(C)(C)CC[C@]7(C(=O)NCc7cn(-c8cccnc8)nn7)CC[C@@]6(C)[C@]5(C)CC[C@H]4C3(C)C)OC[C@H](O[C@@H]3O[C@H](CO)[C@@H](O)[C@H](O)[C@H]3O)[C@@H]2O)[C@H](O)[C@H](O)[C@H]1O	4.39	4.70	5.00	5.04	4.42	4.33
C[C@@H]1O[C@@H](O[C@H]2[C@H](O[C@H]3CC[C@]4(C)[C@H]5CC=C6[C@@H]7CC(C)(C)CC[C@]7(C(=O)NCc7cn(-c8ccc(C(F)(F)F)cc8)nn7)CC[C@@]6(C)[C@]5(C)CC[C@H]4C3(C)C)OC[C@H](O[C@@H]3O[C@H](CO)[C@@H](O)[C@H](O)[C@H]3O)[C@@H]2O)[C@H](O)[C@H](O)[C@H]1O	5.40	5.61	5.28	6.02	5.34	5.31
COc1cccc(-n2cc(CNC(=O)[C@]34CCC(C)(C)C[C@H]3C3=CC[C@@H]5[C@@]6(C)CC[C@H](O[C@@H]7OC[C@H](O[C@@H]8O[C@H](CO)[C@@H](O)[C@H](O)[C@H]8O)[C@H](O)[C@H]7O[C@@H]7O[C@@H](C)[C@H](O)[C@@H](O)[C@H]7O)C(C)(C)[C@@H]6CC[C@@]5(C)[C@]3(C)CC4)nn2)c1	6.64	5.78	5.25	5.23	5.46	5.61
C[C@@H]1O[C@@H](O[C@H]2[C@H](O[C@H]3CC[C@]4(C)[C@H]5CC=C6[C@@H]7CC(C)(C)CC[C@]7(C(=O)NCc7cn(-c8ccccc8)nn7)CC[C@@]6(C)[C@]5(C)CC[C@H]4C3(C)C)OC[C@H](O[C@@H]3O[C@H](CO)[C@@H](O)[C@H](O)[C@H]3O)[C@@H]2O)[C@H](O)[C@H](O)[C@H]1O	4.35	4.59	4.73	5.06	5.03	5.43
CC(=O)c1cccc(-n2cc(CNC(=O)[C@]34CCC(C)(C)C[C@H]3C3=CC[C@@H]5[C@@]6(C)CC[C@H](O[C@@H]7OC[C@H](O[C@@H]8O[C@H](CO)[C@@H](O)[C@H](O)[C@H]8O)[C@H](O)[C@H]7O[C@@H]7O[C@@H](C)[C@H](O)[C@@H](O)[C@H]7O)C(C)(C)[C@@H]6CC[C@@]5(C)[C@]3(C)CC4)nn2)c1	5.20	6.30	5.25	6.09	5.48	6.36
COc1ccccc1-n1cc(CNC(=O)[C@]23CCC(C)(C)C[C@H]2C2=CC[C@@H]4[C@@]5(C)CC[C@H](O[C@@H]6OC[C@H](O[C@@H]7O[C@H](CO)[C@@H](O)[C@H](O)[C@H]7O)[C@H](O)[C@H]6O[C@@H]6O[C@@H](C)[C@H](O)[C@@H](O)[C@H]6O)C(C)(C)[C@@H]5CC[C@@]4(C)[C@]2(C)CC3)nn1	4.42	4.75	4.91	5.11	4.35	5.16
